Test results reported in patent US11697648B2, “Fused pyrimidine pyridinone compounds as JAK inhibitors” (THERAVANCE BIOPHARMA R&D IP, LLC, priority 2019, dated 2023).

Legend:
[1] = system: IL-2 stimulated STAT5 phosphorylation in Tall-1 human T cell line (JAK3); assay: Cellular JAK3 potency assay: inhibition of IL-2 stimulated pSTAT5 in Tall-1 T cells; assay type: cell-based; conditions: IL-2 stimulated pSTAT5, Tall-1 T cells
Method in brief: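 Tall-1 cells, 45,000 per well, preincubated 1 hour with compound at 37 °C, then stimulated 30 minutes with IL-2 at 300 ng/ml final. pSTAT5 (Tyr694/699) in lysates quantified by AlphaLISA SureFire Ultra. pIC50 derived from inhibition curves, given as mean with SD.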

[2] = biological target: JAK3 (Homo sapiens (Human), UniProt P52333); assay: Biochemical JAK3 kinase assay (LanthaScreen); conditions: for JAK3 (pKi)-JAK1 (pKi): selectivity JAK3 over JAK1, difference of pKi
JAK3, sequence (P52333 whole entry): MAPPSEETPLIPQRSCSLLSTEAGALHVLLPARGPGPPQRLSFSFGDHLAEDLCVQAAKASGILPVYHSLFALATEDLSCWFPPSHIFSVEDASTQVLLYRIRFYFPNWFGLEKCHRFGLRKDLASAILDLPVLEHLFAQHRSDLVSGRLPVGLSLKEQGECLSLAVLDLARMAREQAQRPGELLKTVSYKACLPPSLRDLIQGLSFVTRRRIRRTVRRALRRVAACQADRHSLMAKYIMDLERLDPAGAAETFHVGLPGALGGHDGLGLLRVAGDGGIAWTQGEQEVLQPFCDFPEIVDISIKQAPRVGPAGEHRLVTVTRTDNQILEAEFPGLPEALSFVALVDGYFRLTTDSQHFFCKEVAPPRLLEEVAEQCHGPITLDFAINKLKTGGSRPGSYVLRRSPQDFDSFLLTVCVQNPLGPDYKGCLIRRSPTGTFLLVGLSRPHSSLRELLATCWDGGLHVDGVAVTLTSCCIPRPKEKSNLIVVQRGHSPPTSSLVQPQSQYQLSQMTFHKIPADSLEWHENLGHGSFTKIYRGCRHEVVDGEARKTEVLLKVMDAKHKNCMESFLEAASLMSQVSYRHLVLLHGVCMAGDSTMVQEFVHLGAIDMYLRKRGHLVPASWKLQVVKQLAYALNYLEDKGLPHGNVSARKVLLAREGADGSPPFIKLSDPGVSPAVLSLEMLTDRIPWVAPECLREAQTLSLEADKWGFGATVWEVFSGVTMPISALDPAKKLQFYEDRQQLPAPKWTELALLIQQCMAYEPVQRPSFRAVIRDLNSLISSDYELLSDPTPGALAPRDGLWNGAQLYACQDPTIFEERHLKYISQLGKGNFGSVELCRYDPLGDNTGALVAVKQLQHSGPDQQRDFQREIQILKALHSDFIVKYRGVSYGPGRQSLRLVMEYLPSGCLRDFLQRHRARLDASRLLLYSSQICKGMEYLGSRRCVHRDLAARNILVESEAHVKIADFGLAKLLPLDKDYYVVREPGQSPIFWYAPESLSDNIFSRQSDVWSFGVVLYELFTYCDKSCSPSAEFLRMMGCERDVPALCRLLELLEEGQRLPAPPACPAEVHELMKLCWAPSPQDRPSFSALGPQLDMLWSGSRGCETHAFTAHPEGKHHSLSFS
Method in brief: (§1)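 GST-JAK + GFP-STAT1 peptide, HEPES pH 7.5/MgCl2/EGTA/Brij-35 buffer; cpd preincubation 1 h RT; ATP start, 1 h RT; stop with 10 mM EDTA + 2 nM Tb-anti-pSTAT1; TR-FRET 520/495. 4-parameter IC50 → pKi (Cheng-Prusoff).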

[3] = biological target: JAK2 (Homo sapiens (Human), UniProt O60674); assay: Biochemical JAK2 kinase assay (LanthaScreen)
JAK2, sequence (O60674 whole entry): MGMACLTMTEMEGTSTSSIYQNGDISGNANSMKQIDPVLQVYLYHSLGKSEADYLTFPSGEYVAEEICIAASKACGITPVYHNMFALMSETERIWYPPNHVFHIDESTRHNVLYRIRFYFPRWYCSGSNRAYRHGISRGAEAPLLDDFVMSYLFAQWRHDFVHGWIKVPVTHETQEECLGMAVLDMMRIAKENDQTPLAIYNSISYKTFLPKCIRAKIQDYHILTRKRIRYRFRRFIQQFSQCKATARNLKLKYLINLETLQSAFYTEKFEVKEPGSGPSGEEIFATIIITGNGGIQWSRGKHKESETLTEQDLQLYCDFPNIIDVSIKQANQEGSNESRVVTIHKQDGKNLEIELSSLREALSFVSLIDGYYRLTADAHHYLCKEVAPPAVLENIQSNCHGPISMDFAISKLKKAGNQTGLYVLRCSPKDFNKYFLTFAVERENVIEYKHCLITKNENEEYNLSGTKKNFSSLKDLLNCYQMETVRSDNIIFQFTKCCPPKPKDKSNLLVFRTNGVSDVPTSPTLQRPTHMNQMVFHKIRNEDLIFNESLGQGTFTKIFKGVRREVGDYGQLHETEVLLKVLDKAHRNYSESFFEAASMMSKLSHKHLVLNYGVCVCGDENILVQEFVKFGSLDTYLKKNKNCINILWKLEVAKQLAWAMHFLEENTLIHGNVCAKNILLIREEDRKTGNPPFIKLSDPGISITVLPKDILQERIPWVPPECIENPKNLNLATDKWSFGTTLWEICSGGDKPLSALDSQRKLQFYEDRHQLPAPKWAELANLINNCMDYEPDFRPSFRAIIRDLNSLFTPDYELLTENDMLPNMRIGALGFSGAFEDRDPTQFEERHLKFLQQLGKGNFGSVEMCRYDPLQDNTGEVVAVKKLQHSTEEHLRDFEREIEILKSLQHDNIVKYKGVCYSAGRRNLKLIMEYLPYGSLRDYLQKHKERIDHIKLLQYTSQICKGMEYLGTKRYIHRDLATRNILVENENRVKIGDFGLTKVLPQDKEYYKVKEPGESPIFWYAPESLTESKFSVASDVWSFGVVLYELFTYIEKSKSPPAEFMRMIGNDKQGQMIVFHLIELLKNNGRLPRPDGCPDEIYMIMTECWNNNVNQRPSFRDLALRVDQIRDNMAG
Method in brief: as §1

[4] = biological target: JAK1 (Homo sapiens (Human), UniProt P23458); assay: Biochemical JAK1 kinase assay (LanthaScreen)
JAK1, sequence (P23458 whole entry): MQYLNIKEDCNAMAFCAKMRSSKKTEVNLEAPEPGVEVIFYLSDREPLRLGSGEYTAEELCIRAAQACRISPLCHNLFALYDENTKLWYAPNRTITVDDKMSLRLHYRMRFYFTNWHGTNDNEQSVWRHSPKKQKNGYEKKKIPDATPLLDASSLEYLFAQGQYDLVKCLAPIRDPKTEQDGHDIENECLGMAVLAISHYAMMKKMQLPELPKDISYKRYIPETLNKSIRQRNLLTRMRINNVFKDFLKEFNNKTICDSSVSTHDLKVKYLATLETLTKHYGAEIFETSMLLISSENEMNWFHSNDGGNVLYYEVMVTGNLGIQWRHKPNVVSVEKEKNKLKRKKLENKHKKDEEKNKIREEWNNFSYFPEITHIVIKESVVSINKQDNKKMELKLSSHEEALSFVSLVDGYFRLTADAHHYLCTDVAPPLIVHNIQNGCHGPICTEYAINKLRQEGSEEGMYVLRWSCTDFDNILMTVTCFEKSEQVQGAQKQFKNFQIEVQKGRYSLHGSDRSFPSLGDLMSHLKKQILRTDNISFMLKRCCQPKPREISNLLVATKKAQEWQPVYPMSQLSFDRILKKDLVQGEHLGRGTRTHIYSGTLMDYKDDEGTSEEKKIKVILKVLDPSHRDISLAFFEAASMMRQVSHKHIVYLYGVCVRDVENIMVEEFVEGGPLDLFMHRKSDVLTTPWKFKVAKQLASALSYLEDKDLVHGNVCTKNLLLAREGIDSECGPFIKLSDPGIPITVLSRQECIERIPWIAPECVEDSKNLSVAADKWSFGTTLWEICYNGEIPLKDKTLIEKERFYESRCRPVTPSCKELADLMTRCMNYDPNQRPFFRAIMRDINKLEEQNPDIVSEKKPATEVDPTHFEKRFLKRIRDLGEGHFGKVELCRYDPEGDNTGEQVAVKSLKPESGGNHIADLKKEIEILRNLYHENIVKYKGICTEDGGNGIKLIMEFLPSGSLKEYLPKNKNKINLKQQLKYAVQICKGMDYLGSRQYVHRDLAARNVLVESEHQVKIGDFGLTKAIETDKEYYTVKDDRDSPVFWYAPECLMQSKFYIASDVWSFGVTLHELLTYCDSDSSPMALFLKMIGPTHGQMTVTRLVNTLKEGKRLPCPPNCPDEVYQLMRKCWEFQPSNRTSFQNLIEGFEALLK
Method in brief: as §1

[5] = biological target: Tyk2 (Homo sapiens (Human), UniProt P29597); assay: Biochemical Tyk2 kinase assay (LanthaScreen)
Tyk2, sequence (P29597 whole entry): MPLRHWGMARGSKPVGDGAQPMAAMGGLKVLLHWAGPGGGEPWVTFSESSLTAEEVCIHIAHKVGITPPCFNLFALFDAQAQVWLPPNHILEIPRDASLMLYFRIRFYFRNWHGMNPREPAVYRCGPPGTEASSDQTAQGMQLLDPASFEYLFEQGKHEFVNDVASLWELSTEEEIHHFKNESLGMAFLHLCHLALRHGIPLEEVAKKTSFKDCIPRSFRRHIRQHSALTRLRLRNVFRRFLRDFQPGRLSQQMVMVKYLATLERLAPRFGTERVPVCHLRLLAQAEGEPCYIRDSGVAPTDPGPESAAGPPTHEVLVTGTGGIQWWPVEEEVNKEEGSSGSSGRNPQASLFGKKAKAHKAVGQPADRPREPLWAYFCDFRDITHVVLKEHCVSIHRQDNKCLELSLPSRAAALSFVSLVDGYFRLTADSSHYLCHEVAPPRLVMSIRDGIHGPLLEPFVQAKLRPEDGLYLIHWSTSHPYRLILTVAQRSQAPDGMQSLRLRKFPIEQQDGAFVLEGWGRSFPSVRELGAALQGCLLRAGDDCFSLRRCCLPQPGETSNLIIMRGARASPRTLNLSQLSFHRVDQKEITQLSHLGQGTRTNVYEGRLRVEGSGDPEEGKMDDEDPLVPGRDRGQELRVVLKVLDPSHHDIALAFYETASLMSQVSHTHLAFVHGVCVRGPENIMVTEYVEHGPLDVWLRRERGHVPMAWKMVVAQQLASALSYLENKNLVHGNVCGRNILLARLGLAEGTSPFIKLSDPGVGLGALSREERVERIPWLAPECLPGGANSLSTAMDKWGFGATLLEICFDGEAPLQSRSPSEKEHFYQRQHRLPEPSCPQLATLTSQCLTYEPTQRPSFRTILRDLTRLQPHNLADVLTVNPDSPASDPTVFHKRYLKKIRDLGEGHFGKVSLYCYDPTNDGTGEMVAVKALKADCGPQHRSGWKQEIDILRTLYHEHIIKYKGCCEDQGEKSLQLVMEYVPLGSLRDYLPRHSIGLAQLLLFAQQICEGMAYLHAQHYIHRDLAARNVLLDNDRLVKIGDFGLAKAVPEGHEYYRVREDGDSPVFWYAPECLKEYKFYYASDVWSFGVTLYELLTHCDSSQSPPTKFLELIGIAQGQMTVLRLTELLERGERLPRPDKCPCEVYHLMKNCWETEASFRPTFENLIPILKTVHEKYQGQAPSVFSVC
Method in brief: as §1

[6] = system: Caco-2 cell monolayers; assay: Caco-2 permeation assay; assay type: in vitro ADME; conditions: 5 μM, A-B direction, with Verapamil (25 μM)
Method in brief: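 Compounds tested at 5 μM in duplicate across Caco-2 monolayers, apical-to-basolateral, with 25 μM verapamil to block P-gp, at 37° C., 5% CO2. Apical and basal samples taken at 0 and 120 min, analysed by LC-MS/MS; Papp (cm/sec) calculated as dQ/(dt×Area×concentration).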

[7] = Colon and plasma mouse pharmacokinetics; assay type: in vivo; conditions: mouse, colon tissue / plasma; male Balb/c mice, 10 mg/kg PO; ratio of the colon AUC to the plasma AUC
Experimental: Assay 5: Colon and Plasma Mouse Pharmacokinetics
To 6 male Balb/c mice was administered 10 mg/kg of compound in 1% HPMC+0.1% Tween-80 by PO administration. At 0.5, 2 and 6 hours after dose administration, animals were anesthetized, and terminal blood samples were collected by cardiac puncture, followed by collection of colon contents and colon tissue.
Blood samples were collected into K2EDTA and stored on wet ice until processed to plasma by centrifugation (12000 rpm at 4° C.). Plasma samples were transferred to cluster tubes and placed on dry ice prior to freezer storage. The colon contents from each animal were collected at each terminal blood collection time point. The colon tissues were flushed with saline and patted dry. The colon and colon content tissues were homogenized using sterile water containing 0.1% formic acid 9:1 (water:tissue, v/w). The homogenized tissues and colon contents were transferred to cluster tubes and placed on dry ice prior to freezer storage. All samples were analyzed using LC/MS/MS against analytical standards.
The composite pharmacokinetic parameters of the compounds were determined by non-compartmental analysis using Phoenix WinNonlin Version 6 (Certara, St. Louis, Mo.) and using mean values from 2 animals/time point. For plasma concentrations below the quantification limit (BQL), the lowest concentration measurable or the BLOQ (below limit of quantification) was used.
A colon to plasma ratio was determined as the ratio of the colon AUC to the plasma AUC.

Compound	Tall-1 (pIC50) [1]	JAK 3 (pKi) [2]	JAK3 (pKi)-JAK1 (pKi) [2]	JAK 2 (pKi) [3]	JAK 1 (pKi) [4]	Tyk 2 (pKi) [5]	Caco Kp [6]	Kp [7]
C=CC(=O)N1CC(CCn2c(=O)ccc3cnc(Nc4cnn(C)c4)nc32)C1 [Example 15]	B (B represents a pC50 value between 6.7 (included) and 7.5 (IC50 between 200 nM and 32 nM))	B (B represents pKi value between 9 and 10 (Ki between 1 nM and 0.1 nM))	A (A represents a value of 3 or above)	E (E represents a pKi value of 7 or below (Ki of 100 nM or above))	E (E represents a pKi value of 7 or below (Ki of 100 nM or above))	E (E represents a pKi value of 7 or below (Ki of 100 nM or above))	B (B represents a value between 5×10^−6 and 10×10^−6 cm/sec)	> 100
C=CC(=O)N1CC(CCn2c(=O)ccc3cnc(Nc4ccc(N5CCN(S(=O)(=O)CCOC)CC5)cc4)nc32)C1 [Example 76]	B (B represents a pC50 value between 6.7 (included) and 7.5 (IC50 between 200 nM and 32 nM))	B (B represents pKi value between 9 and 10 (Ki between 1 nM and 0.1 nM))	A (A represents a value of 3 or above)	E (E represents a pKi value of 7 or below (Ki of 100 nM or above))	E (E represents a pKi value of 7 or below (Ki of 100 nM or above))	E (E represents a pKi value of 7 or below (Ki of 100 nM or above))	B (B represents a value between 5×10^−6 and 10×10^−6 cm/sec)	> 14
C=CC(=O)N1CC(CCn2c(=O)ccc3cnc(Nc4cccc(N5CCN(C)CC5)c4)nc32)C1 [Example 31]	B (B represents a pC50 value between 6.7 (included) and 7.5 (IC50 between 200 nM and 32 nM))	B (B represents pKi value between 9 and 10 (Ki between 1 nM and 0.1 nM))	A (A represents a value of 3 or above)	E (E represents a pKi value of 7 or below (Ki of 100 nM or above))	E (E represents a pKi value of 7 or below (Ki of 100 nM or above))	E (E represents a pKi value of 7 or below (Ki of 100 nM or above))	A (A represents a value below 5×10^−6 cm/sec)	> 50
C=CC(=O)N1CC(CCn2c(=O)ccc3cnc(Nc4ccc(N5CCN(C)CC5)nc4)nc32)C1 [Example 8, 8-(2-(1-acryloylazetidin-3-yl)ethyl)-2-((6-(4-methylpiperazin-1-yl)pyridin-3-yl)amino)pyrido[2,3-d]pyrimidin-7(8H)-one]	B (B represents a pC50 value between 6.7 (included) and 7.5 (IC50 between 200 nM and 32 nM))	B (B represents pKi value between 9 and 10 (Ki between 1 nM and 0.1 nM))	A (A represents a value of 3 or above)	E (E represents a pKi value of 7 or below (Ki of 100 nM or above))	E (E represents a pKi value of 7 or below (Ki of 100 nM or above))	E (E represents a pKi value of 7 or below (Ki of 100 nM or above))	A (A represents a value below 5×10^−6 cm/sec)	> 100
C=CC(=O)N1CCN(CCn2c(=O)ccc3cnc(Nc4ccc(N5CCN(C(=O)COC)CC5)cc4)nc32)[C@@H](C)C1 [Example 175]	B (B represents a pC50 value between 6.7 (included) and 7.5 (IC50 between 200 nM and 32 nM))	B (B represents pKi value between 9 and 10 (Ki between 1 nM and 0.1 nM))	A (A represents a value of 3 or above)	E (E represents a pKi value of 7 or below (Ki of 100 nM or above))	E (E represents a pKi value of 7 or below (Ki of 100 nM or above))	E (E represents a pKi value of 7 or below (Ki of 100 nM or above))	A (A represents a value below 5×10^−6 cm/sec)	> 100
C=CC(=O)N1CC(CCn2c(=O)ccc3cnc(Nc4cccc(CN5CCN(C(=O)CCSC)CC5)c4)nc32)C1 [Example 110]	A (A represents a pIC50 value≥7.5 (IC50≤32 nM))	A (A represents a pKi value≥10 (Ki≤0.1 nM))	A (A represents a value of 3 or above)	E (E represents a pKi value of 7 or below (Ki of 100 nM or above))	E (E represents a pKi value of 7 or below (Ki of 100 nM or above))	E (E represents a pKi value of 7 or below (Ki of 100 nM or above))	B (B represents a value between 5×10^−6 and 10×10^−6 cm/sec)	> 1000
C=CC(=O)N1CC(CCn2c(=O)ccc3cnc(Nc4ccc(N5CCN(C(=O)CCSC)CC5)cc4)nc32)C1 [Example 3, 8-(2-(1-acryloylazetidin-3-yl)ethyl)-2-((4-(4-(3-(methylthio)propanoyl)piperazin-1-yl)phenyl)amino)pyrido[2,3-d]pyrimidin-7(8H)-one]	B (B represents a pC50 value between 6.7 (included) and 7.5 (IC50 between 200 nM and 32 nM))	A (A represents a pKi value≥10 (Ki≤0.1 nM))	A (A represents a value of 3 or above)	E (E represents a pKi value of 7 or below (Ki of 100 nM or above))	E (E represents a pKi value of 7 or below (Ki of 100 nM or above))	E (E represents a pKi value of 7 or below (Ki of 100 nM or above))	A (A represents a value below 5×10^−6 cm/sec)	> 1000
C=CC(=O)N1CCN(CCn2c(=O)ccc3cnc(Nc4ccc(N5CCN(C(=O)N(C)C)CC5)cc4)nc32)[C@@H](C)C1 [Example 174]	B (B represents a pC50 value between 6.7 (included) and 7.5 (IC50 between 200 nM and 32 nM))	B (B represents pKi value between 9 and 10 (Ki between 1 nM and 0.1 nM))	A (A represents a value of 3 or above)	E (E represents a pKi value of 7 or below (Ki of 100 nM or above))	E (E represents a pKi value of 7 or below (Ki of 100 nM or above))	E (E represents a pKi value of 7 or below (Ki of 100 nM or above))	B (B represents a value between 5×10^−6 and 10×10^−6 cm/sec)	> 14
C=CC(=O)N1CC(CCn2c(=O)ccc3cnc(Nc4cccc(N5CCN(C(=O)CSC)CC5)c4)nc32)C1 [Example 107]	B (B represents a pC50 value between 6.7 (included) and 7.5 (IC50 between 200 nM and 32 nM))	B (B represents pKi value between 9 and 10 (Ki between 1 nM and 0.1 nM))	A (A represents a value of 3 or above)	E (E represents a pKi value of 7 or below (Ki of 100 nM or above))	E (E represents a pKi value of 7 or below (Ki of 100 nM or above))	E (E represents a pKi value of 7 or below (Ki of 100 nM or above))	A (A represents a value below 5×10^−6 cm/sec)	> 50
C=CC(=O)N1CC(CCn2c(=O)ccc3cnc(Nc4cccc(CN5CCN(C(=O)COC)CC5)c4)nc32)C1 [Example 112]	B (B represents a pC50 value between 6.7 (included) and 7.5 (IC50 between 200 nM and 32 nM))	A (A represents a pKi value≥10 (Ki≤0.1 nM))	A (A represents a value of 3 or above)	E (E represents a pKi value of 7 or below (Ki of 100 nM or above))	E (E represents a pKi value of 7 or below (Ki of 100 nM or above))	E (E represents a pKi value of 7 or below (Ki of 100 nM or above))	A (A represents a value below 5×10^−6 cm/sec)	> 100
